What was measured:
[1] = target: T1, PYR1 K59R,Y120H,M158I triple mutant (Arabidopsis thaliana, UniProt O49686, K59R/M158I/Y120H); assay: In vitro receptor (PP2C) assay, 2:1 receptor to phosphatase; format: biochemical
T1 construct: 6×-His (N); made in house
Procedure: FIGS. 2A-2B. […] FIG. 2A. The mutants (listed on left side of panel) were constructed in pBD-PYR1 and transformed into Y190 pAD-HAB1 yeast cells. The transformants were then grown on increasing concentrations of fenhexamid and scored for responsiveness using X-gal staining, performed as described in Park et al., 2009. As shown, the mutations K59R, Y120H, and M1581 are necessary for fenhexamid response by 27C-2. FIG. 2B. In vitro characterization of the PYR1 K59R, Y120H, M158I mutant. Recombinant wild-type and mutant PYR1 proteins were produced as described previously and used in PP2C assays, as described previously (Park et al., 2009), with the exception that a 2:1 ratio of receptor to phosphatase was utilized.
To establish the relevance of the residues identified by our screens, we focused on a highly sensitive fenhexamid-responsive mutant identified, 27C-2, which contains 5 mutations (P42S, K59R, R74C, Y120H, and M158I; SEQ ID NO:171; see Table 8) in comparison to the wild-type PYR1 sequence. […] To probe the role of the 5 mutations in fenhexamid response, each of these residues were reverted back to the wild-type residue using site-directed mutagenesis.

[2] = target: T2, PYR1 mutant 27-18 (Arabidopsis thaliana, UniProt O49686, K59R/S47P/Y120H); assay: Yeast two-hybrid LacZ reporter assay (pAD-HAB1 YRG-2 strain); format: cell-based; conditions: 1, 5, 10, 25, and 50 μM
T2 construct: expressed in transfected cells; host or cells: S. cerevisiae YRG-2 expressing pAD-HAB1
T2 sequence (O49686 whole entry S47P/K59R/Y120H): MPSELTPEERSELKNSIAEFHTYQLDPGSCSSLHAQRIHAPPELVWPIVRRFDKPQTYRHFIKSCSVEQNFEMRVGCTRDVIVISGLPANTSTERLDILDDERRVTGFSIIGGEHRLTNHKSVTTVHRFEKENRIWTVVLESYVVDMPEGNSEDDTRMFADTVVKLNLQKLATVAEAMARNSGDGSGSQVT
T2 sequence (Q9CAJ0 23-511, stated change not applied, further chain): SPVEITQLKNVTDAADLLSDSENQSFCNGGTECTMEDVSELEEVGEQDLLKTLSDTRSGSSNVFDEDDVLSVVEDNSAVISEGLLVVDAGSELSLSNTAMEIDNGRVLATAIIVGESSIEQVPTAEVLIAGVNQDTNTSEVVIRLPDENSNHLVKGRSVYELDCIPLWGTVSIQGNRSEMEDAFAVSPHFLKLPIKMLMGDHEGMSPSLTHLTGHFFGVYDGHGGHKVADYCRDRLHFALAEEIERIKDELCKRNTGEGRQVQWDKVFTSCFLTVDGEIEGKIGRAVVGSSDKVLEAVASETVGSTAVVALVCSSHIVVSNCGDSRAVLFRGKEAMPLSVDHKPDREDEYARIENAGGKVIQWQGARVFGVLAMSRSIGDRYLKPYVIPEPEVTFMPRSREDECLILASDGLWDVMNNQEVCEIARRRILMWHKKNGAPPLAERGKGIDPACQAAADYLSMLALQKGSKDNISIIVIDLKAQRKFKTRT
Procedure: (§1) Plasmids for three representative mutant clones (27-9, 27-18, and 27-36) were isolated from the primary yeast cells and transformed into a pAD-HAB1 expressing YRG-2 reporter strain (Park et al., Science 324:1068-1071 (2009)) in which Ga14 drives expression of a LacZ reporter gene to allow colorimetric indication of agonist response. Fenhexamid was applied at concentrations of 1, 5, 10, 25, and 50 μM. […] Mutant 27-36 was responsive to fenhexamid at 25 and 50 μM concentrations.

[3] = target: T3, PYR1 mutant 27-36 (Arabidopsis thaliana, UniProt O49686, E12G/E43G/I110S/K59R/N133D); assay: as above; format: cell-based; conditions: 25 and 50 μM (applied 1-50 μM)
T3 construct: expressed in transfected cells; host or cells: S. cerevisiae YRG-2 expressing pAD-HAB1
T3 sequence (Q9CAJ0 23-511): as the sequence (Q9CAJ0 23-511, stated change not applied, further chain) above
T3 sequence (O49686 whole entry E12G/E43G/K59R/I110S/N133D): as the sequence (O49686 whole entry S47P/K59R/Y120H) above, with E12G, E43G, P47S, I110S, H120Y, N133D counted along it
Procedure: as §1

[4] = target: T4, PYR1 mutant 27-9 (Arabidopsis thaliana, UniProt O49686, E153G/K59R/P42S/Y120C); assay: as above; format: cell-based
T4 construct: expressed in transfected cells; host or cells: S. cerevisiae YRG-2 expressing pAD-HAB1
T4 sequence (O49686 whole entry P42S/K59R/Y120C/E153G): as the sequence (O49686 whole entry S47P/K59R/Y120H) above, with P42S, P47S, H120C, E153G counted along it
T4 sequence (Q9CAJ0 whole entry, further chain): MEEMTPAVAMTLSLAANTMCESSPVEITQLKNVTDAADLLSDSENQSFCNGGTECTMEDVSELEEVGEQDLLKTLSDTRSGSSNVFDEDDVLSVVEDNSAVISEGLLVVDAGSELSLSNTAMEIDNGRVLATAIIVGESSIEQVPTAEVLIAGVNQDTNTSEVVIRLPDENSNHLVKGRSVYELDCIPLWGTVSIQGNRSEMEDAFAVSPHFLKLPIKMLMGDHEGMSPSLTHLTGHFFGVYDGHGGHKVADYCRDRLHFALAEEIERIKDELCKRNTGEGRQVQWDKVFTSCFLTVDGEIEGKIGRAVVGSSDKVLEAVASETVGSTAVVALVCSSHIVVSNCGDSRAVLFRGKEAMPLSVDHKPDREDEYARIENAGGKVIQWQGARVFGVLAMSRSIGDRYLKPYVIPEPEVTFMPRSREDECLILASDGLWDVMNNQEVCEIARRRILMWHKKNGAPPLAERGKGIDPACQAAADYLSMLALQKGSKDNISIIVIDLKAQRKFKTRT
Procedure: as §1

[5] = tested on: control lines (Columbia wild-type; wild-type PYL2 overexpression line); assay: Seedling germination/growth on fenhexamid; format: in vivo, Arabidopsis; conditions: 100 μM fenhexamid, germinated in the dark, scored two days post-imbibition, FIG. 4
Excerpt: (§2) FIG. 4. Characterization of seedling responses to fenhexamid in 35S::GFP-PYL2 K64R, Y124H, M164I, V67I, V114I transgenic plants. […] Shown are segregating GFP-expressing T2 seedlings from primary transgenic plants (T1). Columbia is the wild-type background and is non-transgenic. Two independent PYL2 K64R, Y124H, M164I, V67I, V114I (“PYL2 MUT”) transgenic lines were characterized in addition to a wild-type PYL2 overexpression line. Seeds from respective lines were germinated in the dark on media containing 100 μM fenhexamid and scored two days post-imbibition.
(§3) To investigate if the fenhexamid response observed in yeast and in vitro experiments would function in plants, transgenic 35S::GFP-PYL2 and 35S::GFP-PYL2^K64R,Y124H,M164I,V67I,V114I plants were constructed using standard molecular cloning methods into a modified version of pEGAD (Cutler et al., Proc Natl Acad Sci U.S.A. 97:3718-3723 (2000)) in which a 6×-histidine tag was added onto the N-terminus of GFP. Transgenic plants were made using the floral-dip method and primary transgenics (T1) identified by screening seedlings by epi-fluorescence using a Leica GFP dissecting microscope. The GFP^+ transgenic plants were grown to maturity and T2 seed collected for further analyses. […]

[6] = tested on: 35S::GFP-PYL2 K64R,Y124H,M164I,V67I,V114I transgenic plants; assay: Seedling germination/growth on fenhexamid; format: in vivo, Arabidopsis; conditions: 100 μM fenhexamid; T2 seedlings expressing mutant PYL2; FIG. 4
Excerpt: as §2, §3

[7] = tested on: PYR/PYL-PP2C protein-protein interactions; assay: Yeast competition screen: reduction of ABA-promoted PYR/PYL-PP2C interaction; format: cell-based; conditions: 100 nM ABA and 100 μM test chemical (1000-fold excess), yeast strains
Excerpt: To isolate PYR1 orthogonal receptors, a two-step process was used. First, a large collection of compounds was screened to identify compounds that weakly interact with receptors, defined as such by their ability to displace receptor-bound ABA in competition experiments. Once weak binders were identified, those with the most desirable properties from an end-use perspective were used as targets for iterative mutagenesis and selection schemes. Pre-selection of weak-binding ligands improves the frequency of isolating new receptor proteins, because fewer alterations of the ligand binding site are required to achieve molecular recognition. However, pre-selection is not a prerequisite for success.
Pre-selection of ligands. 74 structurally diverse agrochemicals were obtained, selected from a larger set of approximately 1500 commercially available agrochemicals. These 74 compounds were tested for their ability to reduce ABA-promoted PYR/PYL-PP2C protein-protein interactions in suitable yeast strains when added at 1000-fold excess relative to ABA (i.e. 100 nM ABA and 100 μM test chemical).

T1 sequence (O49686 whole entry K59R/Y120H/M158I): as the sequence (O49686 whole entry S47P/K59R/Y120H) above, with P47S, M158I counted along it
T1 sequence (Q9CAJ0 23-511, further chain): as the sequence (Q9CAJ0 23-511, stated change not applied, further chain) above

Compound: CC1(C(=O)Nc2ccc(O)c(Cl)c2Cl)CCCCC1 [fenhexamid]
- IC50 [1]: ~400 nM
- Response to fenhexamid (LacZ staining) [2]: strongly responded
- Response to fenhexamid (LacZ staining) [3]: responsive
- Response to fenhexamid (LacZ staining) ([4]; 1 μM): weakly positive
- Response to fenhexamid (LacZ staining) ([4]; 5, 10, 25, and 50 μM): strongly responded
- Post-germination arrest on fenhexamid [5]: do not
- Seedling growth on fenhexamid [6]: strong growth inhibition
- ability to reduce ABA-promoted PYR/PYL-PP2C protein-protein interactions [7]: compete for ABA

Reference: patent US20160312240A1, “MODIFIED PYR/PYL RECEPTORS ACTIVATED BY ORTHOGONAL LIGANDS” (The Regents of the University of California, priority 2010, published 2016)
